The source of these data is patent US20030199671A1, “Binding molecules for Fc-region polypeptides” (priority 2001, published 2003).

Positions of bridges follow the written chain, without caps; N, C: chain ends. Residues, ends and D or L forms follow the SMILES beside them. Some results are limits rather than exact numbers.

One experiment has as its system bovine IgG. Kind of experiment: Mini-chromatography column binding (dynamic conditions). The settings on record: 250 μg target, 170 cm/hr. As for the experimental part:
(§1) Thus, 250 μg of target (hIgG1, hIgG2, hIgG3, hIgG4, goat IgG and bovine IgG) at 0.250 mg/ml in PBST, pH 7.2 or TBST, pH 7.3 was loaded onto a 350 μl column (3×50 mm) run at 0.200 ml/min. flowrate (170 cm/hr). Flowthrough, elution and cleaning fractions were collected and assayed for total protein recovery by size-exclusion HPLC. Percentage mass balance was also determined to be 90-100% on average.

The next experiment has as its system goat IgG. Described as above. The following applies: 250 μg target, 170 cm/hr. As for the experimental part: as §1
For a further experiment, the system named is polyclonal human IgG. Kind of experiment: DX253 column re-use: total dynamic binding capacity. As to the method: DX253 peptide was immobilized onto NHS-activated 4 Fast Flow to a ligand density of 2.9 μmole/ml as determined by quantitative amino acid analysis. This affinity resin was packed into a 4.6 mm×6 cm (internal diam.×length, 1.0 ml bed volume) PEEK column (Isolation Technologies, Inc., 5050IP-08046-006-20).
To establish total dynamic binding capacity, polyclonal human IgG (ICN, 55908) was prepared in PBS, pH 7.2 containing 0.05% NaN3 at 2.5 mg/ml. A total of 75 mg (30 ml) was loaded at 0.21 ml/minute (75 cm/hr) to capacity (until the absorbance at 280 nm of the load was equivalent to that of the column flowthrough). Fractions were collected across the entire run. Unbound IgG was washed to baseline at 0.42 ml/minute (150 cm/hour) with PBS, pH 7.2. Bound IgG was eluted with 0.1M citrate, pH 3.0 buffer and immediately neutralized with minimal addition of 1M HEPES, pH 9.0 buffer to ˜pH 7.0. […] All post-load wash, elution and cleaning steps were performed at a flow rate of 0.42 ml/minute (150 cm/hour). Total mg IgG bound was determined by measuring the absorbance at 280 nm of the elution fraction calculated using an extinction coefficicent of 1.4. Initial (T=0, prior to initiating column cycling) total dynamic capacity measured 19.8 mg human IgG per ml affinity resin. […] Mass balance recovery for these 5 total capacity determinations averaged 98%. […] The column retained approximately 90% relative performance with respect to total dynamic capacity after 95 cycles.

Another experiment concerns human Fc fragments. Kind of experiment: Mini-chromatography column capture from PBST. The class given is binding. The settings on record: 350 μl column, Fc spiked into PBST, pH 7.2. As for the experimental part:
For these experiments, 350 μl columns (3×50 mm) were packed with each media. The columns were tested with human Fc fragments or human IgG1 (Calbiochem, 401104 and 400120 respectively) spiked into PBST, pH 7.2 at a concentration of 0.5 g/l. 65 μg of Fc was loaded onto each column. After loading, the columns were washed with PBST, pH 7.2, eluted with 30 mM H3PO4, 150 mM NaCl, pH 2.0 and cleaned with 0.1M CAPS, pH 11.5 buffer (3-[Cyclohexylamino]-1-propane-sulfonic acid). Fractions collected were immediately neutralized to pH ˜7.2 with 2.0 M Tris, pH 8.0. All column operations were conducted at 200 μl/min (170 cm/hr).

The target in a further experiment is T1, human plasma IgG1 (Homo sapiens, UniProt P01857).
T1 construct: the individual human plasma IgG isoforms: IgG1, IgG2, IgG3, or IgG4; purchased Calbiochem; host or cells: human plasma
T1 sequence (P01857 1-330 isoform P01857-1): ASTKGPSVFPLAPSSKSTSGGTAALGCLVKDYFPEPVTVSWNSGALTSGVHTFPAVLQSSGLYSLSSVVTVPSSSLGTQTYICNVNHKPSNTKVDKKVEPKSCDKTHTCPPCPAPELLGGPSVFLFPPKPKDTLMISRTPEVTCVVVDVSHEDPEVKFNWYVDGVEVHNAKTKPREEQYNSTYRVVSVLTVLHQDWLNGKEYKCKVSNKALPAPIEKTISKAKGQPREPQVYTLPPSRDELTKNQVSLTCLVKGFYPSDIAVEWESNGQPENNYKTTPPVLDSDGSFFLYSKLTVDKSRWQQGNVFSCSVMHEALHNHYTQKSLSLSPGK
Nature of the experiment: Fluorescence anisotropy binding, fluorescein-labeled peptide. As to the method:
(§2) All measurements were performed in 384 well microplates with 20 nM fluorescein-labeled peptide and various concentrations of the IgG isoform in a volume of between 10 and 20 μl using a Tecan Polarion fluorescence polarization plate reader. All binding buffers included 0.01% (v/v) Tween 20 to prevent peptide adsorption to the microplate. The binding mixture was equilibrated for 10 minutes in the microplate at 30° C. prior to performing the measurement.
(§3) Peptides were synthesized, fluorescein-labeled and HPLC purified as described above. Binding studies were performed using either a mixture of human plasma IgG isoforms (the Fc protein) or the individual human plasma IgG isoforms: IgG1, IgG2, IgG3, or IgG4.
(§4) Measurements were performed in 384-well microplates with 2 nM fluorescein-labeled peptide and a varied concentration of the IgG isoform target in a volume of 10 μl using a Tecan Polarion fluorescence polarization plate reader. The Fc binding buffer was 50 mM Tris-HCl, 200 mM NaCl, pH 8.0, 0.01% Tween 20. The IgG binding buffer was PBS with 0.01% Tween 20. The binding mixtures were equilibrated for 10 minutes in the microplate at 30° C. prior to performing the measurements.

The target in the next experiment is T2, human plasma IgG2 (Homo sapiens, UniProt P01859).
T2 construct: the individual human plasma IgG isoforms: IgG1, IgG2, IgG3, or IgG4; purchased Calbiochem; host or cells: human plasma
T2 sequence (P01859 1-326 isoform P01859-1): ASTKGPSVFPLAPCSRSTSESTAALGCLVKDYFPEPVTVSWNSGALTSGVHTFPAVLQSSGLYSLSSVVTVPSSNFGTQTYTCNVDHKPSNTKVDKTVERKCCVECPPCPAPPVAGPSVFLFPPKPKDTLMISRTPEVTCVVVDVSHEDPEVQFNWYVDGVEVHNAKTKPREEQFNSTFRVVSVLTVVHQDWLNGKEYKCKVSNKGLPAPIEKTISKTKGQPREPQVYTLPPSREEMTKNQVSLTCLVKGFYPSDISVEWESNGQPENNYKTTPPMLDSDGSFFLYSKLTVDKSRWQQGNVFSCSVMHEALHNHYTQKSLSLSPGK
Described as above. As to the method:
as §2, §3, §4

The target in another experiment is IgG4 (Homo sapiens, UniProt P01861). Nature of the experiment: Column capture of human IgG4 from goat IgG in buffer. More on the design: all human subtypes derived from myeloma patients; purchased Calbiochem 400126; host or cells: myeloma patients. It is filed as binding. The settings on record: SEC-HPLC; load 99.5% monomer. As to the method:
0.250 mg of hIgG4 (99.5% monomer) was added to 1.0 mg of goat IgG in a total volume of 1.0 ml of PBST, pH 7.2. Thus, 1.0 ml was loaded onto a 350 ul mini-column as described above. The column was washed to baseline with PBST, pH 7.2 and the flowthrough fraction collected. Bound IgG was eluted with 0.1M sodium bicarbonate buffer, pH 9.0 and the column cleaned with 0.1M CAPS, pH 11.5. The eluted and clean fractions were quickly neutralized to pH˜7.2 and assayed for mass recovery by SEC-HPLC. […] The column load, flowthrough, elution and cleaning fractions were further analyzed by electrophoresis (SDS-PAGE), Coomassie stain.
Background: In gel filtration, larger molecules generally elute earlier.

Where [1] appears, read: pH 9.3, 0.01 M sodium bicarbonate.
Setting [2] is: pH 9.3, .01 M sodium bicarbonate, 0.2 M NaCl.

IgG4, sequence (P01861 1-327 isoform P01861-1): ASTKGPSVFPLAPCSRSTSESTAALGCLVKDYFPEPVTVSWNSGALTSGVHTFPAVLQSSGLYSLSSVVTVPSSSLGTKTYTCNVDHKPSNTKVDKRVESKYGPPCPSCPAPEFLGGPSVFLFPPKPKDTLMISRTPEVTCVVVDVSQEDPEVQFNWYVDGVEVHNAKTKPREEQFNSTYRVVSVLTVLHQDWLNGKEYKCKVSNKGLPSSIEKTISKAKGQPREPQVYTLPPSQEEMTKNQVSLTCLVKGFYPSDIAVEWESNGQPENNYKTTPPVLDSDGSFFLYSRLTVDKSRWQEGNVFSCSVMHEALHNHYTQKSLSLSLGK

On to “Prot. A: immobilized recombinant Protein A (RepliGen Corp., product no. IPA-400), positive control [reference compound]”, for which, in the experiment with bovine IgG, the “Binding efficiency, bovine IgG” value is on record as “high”. The “Binding efficiency, goat IgG” value with goat IgG is “moderate”.

For the compound “Ac-GDRRACSRDWSGALVWCAGHEPGPEGGGK-NH2 (not fully specified (bridges); printed as Ac-GDRRACSRDWSGALVWCAGHEPGPEGGGK-NH2; cysteine pairing not given here) [DX253]”, in the experiment with polyclonal human IgG (T=0, ligand density 2.9 μmole/ml), the “Initial total dynamic capacity” value is 19.8 mg human IgG per ml affinity resin. In addition, the “% Relative Performance (total capacity vs T=0, 19.8 mg/ml)” value in the experiment with polyclonal human IgG (Total Capacity Cycle Run No. 0) is 100%; in the experiment on polyclonal human IgG (Total Capacity Cycle Run No. 26) it was 93.9%; with polyclonal human IgG (Total Capacity Cycle Run No. 66), 85.9%; in the experiment with polyclonal human IgG (Total Capacity Cycle Run No. 86) it was 91.4%; in the experiment with polyclonal human IgG (Total Capacity Cycle Run No. 96) it was 87.9%. Moreover, in the experiment with polyclonal human IgG (after 95 cycles), the “Relative performance with respect to total dynamic capacity” value is listed as “approximately 90%”.

The Kd is the concentration at which binding is half-saturated. Lower therefore signals tighter binding. Take `CC(=O)NCC(=O)N[C@@H](CC(=O)O)C(=O)N[C@@H](CC(=O)O)C(=O)N[C@@H](CC(=O)O)C(=O)N[C@@H](Cc1c[nH]cn1)C(=O)N[C@H]1CSSC[C@@H](C(=O)N2CCC[C@H]2C(=O)N[C@@H](Cc2c[nH]cn2)C(=O)NCC(=O)N[C@@H](CCC(=O)O)C(=O)N2CCC[C@H]2C(=O)NCC(=O)N2CCC[C@H]2C(=O)N[C@@H](CCC(=O)O)C(=O)NCC(=O)NCC(=O)NCC(=O)N[C@@H](CCCCN)C(N)=O)NC(=O)[C@H](CCC(=O)O)NC(=O)[C@H](CO)NC(=O)[C@H](CC(N)=O)NC(=O)[C@H](Cc2ccccc2)NC(=O)[C@H](Cc2c[nH]c3ccccc23)NC(=O)[C@H](CCC(=O)O)NC(=O)[C@H](CCCNC(=N)N)NC(=O)[C@H](Cc2ccccc2)NC(=O)[C@H](Cc2c[nH]c3ccccc23)NC(=O)[C@H](Cc2ccc(O)cc2)NC1=O` [DX252] (Ac-GDDDHCYWFREWFNSECPHGEPGPEGGGK-NH2; disulfide 6-17 (inferred)): the “Capture efficiency, Fc” value in the experiment with human Fc fragments came to 70%. Further, the Kd was 2.1 to 3.4 µM on human plasma IgG1 (pH 7.4, 0.01 M Tris-HCl); 2.9 ± 1.6 µM on human plasma IgG1 (pH 7.4, PBS, […] NaCl); above 10 µM at human plasma IgG1 (setting [1]); above 10 µM on human plasma IgG1 (setting [2]); above 1 µM on human plasma IgG2 (pH 5.7, 0.01 M Tris-acetate); 2.1 to 3.4 µM at human plasma IgG2 (pH 7.4, 0.01 M Tris-HCl). At human plasma IgG2 (setting [1]), this compound returned a Kd above 10 µM.

`CC[C@H](C)[C@@H]1NC(=O)[C@H](CC(C)C)NC(=O)[C@H](CCC(=O)O)NC(=O)CNC(=O)[C@H](Cc2c[nH]c3ccccc23)NC(=O)[C@H]([C@@H](C)O)NC(=O)[C@H]([C@@H](C)O)NC(=O)[C@H](Cc2ccc(O)cc2)NC(=O)[C@H](C(C)C)NC(=O)[C@@H](NC(=O)[C@H](CCSC)NC(=O)[C@H](Cc2c[nH]cn2)NC(=O)[C@H](CC(=O)O)NC(=O)[C@H](CC(=O)O)NC(=O)CNC(C)=O)CSSC[C@@H](C(=O)N[C@@H](CC(=O)O)C(=O)N[C@@H](CC(N)=O)C(=O)N[C@@H](Cc2c[nH]cn2)C(=O)N[C@@H](CCC(=O)O)C(=O)N2CCC[C@H]2C(=O)NCC(=O)N2CCC[C@H]2C(=O)N[C@@H](CCC(=O)O)C(=O)NCC(=O)NCC(=O)NCC(=O)N[C@@H](CCCCN)C(N)=O)NC(=O)[C@H](Cc2c[nH]c3ccccc23)NC1=O` [DX249] (Ac-GDDHMCVYTTWGELIWCDNHEPGPEGGGK-NH2; disulfide 6-17): the “Monomer in the eluted fraction” value on IgG4 is 99.5%. The “Effect of including 15% ethylene glycol on binding to IgG1” value on human plasma IgG1 (15% ethylene glycol) was “no observed effect”. Also, the Kd at human plasma IgG1 (pH 5.7, 0.01 M Tris-acetate, 0 M NaCl) is 0.074 ± 0.053 µM; on human plasma IgG1 (pH 5.7, 0.01 M Tris-acetate, […] NaCl), 0.84 ± 0.7 µM; on human plasma IgG1 (pH 7.4, 0.01 M Tris-HCl), 0.4 ± 0.06 µM; on human plasma IgG1 (pH 7.4, PBS, […] NaCl) it was 2.9 ± 0.9 µM; at human plasma IgG1 (pH 7.4 PBS, […] NaCl, 15% EG), 3.6 ± 2.5 µM; on human plasma IgG1 (setting [1]), above 10 µM. The Kd is above 10 µM at human plasma IgG1 (setting [2]); 1.1 ± 0.3 µM at human plasma IgG2 (pH 7.4, PBS, […] NaCl); above 10 µM on human plasma IgG2 (setting [1]).
